Here are results for 33 compounds from patent USRE47141E1, “Methods of treating fibrosis, cancer and vascular injuries” (EWHA University—Industry Collaboration Foundation, priority 2010, dated 2018).

ALK5, sequence (P36897 34-503): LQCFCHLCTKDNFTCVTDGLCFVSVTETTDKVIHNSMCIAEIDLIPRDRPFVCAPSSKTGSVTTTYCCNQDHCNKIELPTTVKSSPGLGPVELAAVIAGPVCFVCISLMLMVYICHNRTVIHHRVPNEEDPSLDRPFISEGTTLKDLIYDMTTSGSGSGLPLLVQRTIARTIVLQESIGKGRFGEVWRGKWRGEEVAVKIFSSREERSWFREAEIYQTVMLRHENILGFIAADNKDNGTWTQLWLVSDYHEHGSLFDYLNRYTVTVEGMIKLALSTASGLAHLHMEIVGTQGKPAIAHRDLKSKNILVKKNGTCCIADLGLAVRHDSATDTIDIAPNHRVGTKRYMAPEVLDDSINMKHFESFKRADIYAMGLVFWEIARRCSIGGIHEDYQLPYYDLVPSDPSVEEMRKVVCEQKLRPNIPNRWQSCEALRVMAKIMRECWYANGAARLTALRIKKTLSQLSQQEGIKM

This assay has as its target ALK5 (Homo sapiens (Human), UniProt P36897). The assay can be described thus: Cell-free assay for inhibition of ALK5 kinase phosphorylation. Particulars: read-out: IC50 on ALK5 kinase phosphorylation. In kind it is biochemical.
Procedure: ALK5 protein was expressed in Sf9 insect cells as human recombinant GST-fusion protein using the baculovirus expression system. Expressed protein was purified by affinity chromatography using GSH-agarose (Sigma-Aldrich). Kinase assay was performed in 96-well FlashPlates™ from Perkin Elmer (Boston, Mass., USA) in a 50 μL reaction volume. The reaction cocktail was pipetted in four steps in the following order: 20 μL of assay buffer (standard buffer), 5 μL of ATP solution in H2O, 5 μL of each test compounds of formula (I) in 10% DMSO, 10 μL of GSK3 (14-27) (200 ng)/10 μL of ALK5 solution (1 ng) (premixed). The reaction cocktail contained 60 mM HEPES-NaOH, pH 7.5, 3 mM MgCl2, 3 mM MnCl2, 3 Na3VO4, 1.2 mM DTT, 50 μg/mL PEG20000, 1 μM [γ-^33P]-ATP (approximately 2.5×10^5 cpm per well), 200 ng/10 μL GSK3 (14-27), and 1 ng/10 μL ALK5. The reaction cocktail was incubated at 30° C. for 60 min. The reaction was stopped with 50 μL of 2% (v/v) H3PO4, and plates were aspirated and washed two times with 200 μL 0.9% (w/v) NaCl. Assay was performed with a BeckmanCoulter Biomek 2000 robotic system. Incorporation of ^33Pi (counting of “cpm”) was determined with a microplate scintillation counter (Microbeta, Wallac).
One may read the IC50 as the concentration that inhibits the measured activity by half. As to `Cc1cccc(-c2[nH]c(CNc3ccc(NS(C)(=O)=O)cc3)nc2-c2ccc3ncnn3c2)n1` [Example 79, N-(4-((4-([1,2,4]triazolo[1,5-c]pyridin-6-yl)-5-(6-methylpyridin-2-yl)-1H-imidazol-2-yl)methylamino)phenyl)methanesulfonamide], the concentration for half-maximal inhibition (IC50) was 46.6 nM.
Consider `Cc1cccc(-c2[nH]c(CNc3ccccc3NS(C)(=O)=O)nc2-c2ccc3ncnn3c2)n1` [Example 77, N-(2-((4-([1,2,4]triazolo[1,5-a]pyridin-6-yl)-5-(6-methylpyridin-2-yl)-1H-imidazol-2-yl)methylamino)phenyl)methanesulfonamide], for which the half-inhibitory concentration (IC50) was 15.3 nM.
On to `CC(=O)c1cccc(NCc2nc(-c3ccc4ncnn4c3)c(-c3cccc(C)n3)[nH]2)c1` [Example 70, 1-(3-((4-([1,2,4]triazolo[1,5-a]pyridin-6-yl)-5-(6-methylpyridin-2-yl)-1H-imidazol-2-yl)methylamino)phenyl)ethanone], for which the IC50 worked out at 12.8 nM.
To `CSc1cccc(NCc2nc(-c3ccc4ncnn4c3)c(-c3cccc(C)n3)[nH]2)c1` [Example 55, N-((4-([1,2,4]triazolo[1,5-a]pyridin-6-yl)-5-(6-methylpyridin-2-yl)-1H-imidazol-2-yl)methyl)-3-(methylthio)aniline] belongs 6.7 nM.
To `C=Cc1ccccc1NCc1nc(-c2ccc3ncnn3c2)c(-c2cccc(C)n2)[nH]1` [Example 36, N-((4-([1,2,4]triazolo[1,5-a]pyridin-6-yl)-5-(6-methylpyridin-2-yl)-1H-imidazol-2-yl)methyl)-2-vinylaniline] belongs 14.2 nM; to `COCc1ccc(NCc2nc(-c3ccc4ncnn4c3)c(-c3cccc(C)n3)[nH]2)cc1` [Example 50, N-((4-([1,2,4]triazolo[1,5-a]pyridin-6-yl)-5-(6-methylpyridin-2-yl)-1H-imidazol-2-yl)methyl)-4-(methoxymethyl)aniline], 50.7 nM; to `Cc1cccc(-c2[nH]c(CNc3ccccc3OC(F)(F)F)nc2-c2ccc3ncnn3c2)n1` [Example 51, N-((4-([1,2,4]triazolo[1,5-a]pyridin-6-yl)-5-(6-methylpyridin-2-yl)-1H-imidazol-2-yl)methyl)-2-(trifluoromethoxy)aniline], 12.3 nM.
To `Cc1cccc(-c2[nH]c(CNc3ccccc3)nc2-c2ccc3ncnn3c2)n1` [Example 1, N-((4-([1,2,4]triazolo[1,5-a]pyridin-6-yl)-5-(6-methylpyridin-2-yl)-1H-imidazol-2-yl)methyl)aniline] belongs 13.1 nM; to `Cc1ccc(NCc2nc(-c3ccc4ncnn4c3)c(-c3cccc(C)n3)[nH]2)cc1` [Example 26, N-((4-([1,2,4]triazolo[1,5-a]pyridin-6-yl)-5-(6-methylpyridin-2-yl)-1H-imidazol-2-yl)methyl)-4-methylaniline], 15.6 nM.
On to `Cc1cccc(-c2[nH]c(CSc3ccccc3)nc2-c2ccc3ncnn3c2)n1` [Example 152, 6-(5-(6-methylpyridin-2-yl)-2-(phenylthiomethyl)-1H-imidazol-4-yl)-[1,2,4]triazolo[1,5-a]pyridine], for which the IC50 came to 20.7 nM.
With `Cc1cccc(-c2[nH]c(CNc3ccccc3Cl)nc2-c2ccc3ncnn3c2)n1` [Example 10, N-((4-([1,2,4]triazolo[1,5-a]pyridin-6-yl)-5-(6-methylpyridin-2-yl)-1H-imidazol-2-yl)methyl)-2-chloroaniline] the figure was 9.41 nM; with `Cc1cccc(-c2[nH]c(CNc3cc(Cl)cc(Cl)c3)nc2-c2ccc3ncnn3c2)n1` [Example 17, N-((4-([1,2,4]triazolo[1,5-a]pyridin-6-yl)-5-(6-methylpyridin-2-yl)-1H-imidazol-2-yl)methyl)-3,5-dichloroaniline], 14.6 nM; with `Cc1cccc(-c2[nH]c(CNc3ccc(Cl)cc3)nc2-c2ccc3ncnn3c2)n1` [Example 14, N-((4-([1,2,4]triazolo[1,5-a]pyridin-6-yl)-5-(6-methylpyridin-2-yl)-1H-imidazol-2-yl)methyl)-4-chloroaniline], 10.7 nM.
With `Cc1cccc(-c2[nH]c(CNc3ccc(Br)cc3)nc2-c2ccc3ncnn3c2)n1` [Example 22, N-((4-([1,2,4]triazolo[1,5-a]pyridin-6-yl)-5-(6-methylpyridin-2-yl)-1H-imidazol-2-yl)methyl)-4-bromoaniline] the figure was 17.1 nM; with `Cc1cccc(NCc2nc(-c3ccc4ncnn4c3)c(-c3cccc(C)n3)[nH]2)c1` [Example 24, N-((4-([1,2,4]triazolo[1,5-a]pyridin-6-yl)-5-(6-methylpyridin-2-yl)-1H-imidazol-2-yl)methyl)-3-methylaniline], 9.07 nM.
`Cc1cccc(-c2[nH]c(CNc3cccc(F)c3F)nc2-c2ccc3ncnn3c2)n1` [Example 7, N-((4-([1,2,4]triazolo[1,5-a]pyridin-6-yl)-5-(6-methylpyridin-2-yl)-1H-imidazol-2-yl)methyl)-2,3-difluoroaniline]: the concentration for half-maximal inhibition (IC50) amounted to 8.96 nM.
To `Cc1cccc(-c2[nH]c(CNc3cc(F)cc(F)c3)nc2-c2ccc3ncnn3c2)n1` [Example 9, N-((4-([1,2,4]triazolo[1,5-a]pyridin-6-yl)-5-(6-methylpyridin-2-yl)-1H-imidazol-2-yl)methyl)-3,5-difluoroaniline] belongs 6.39 nM; to `Cc1cccc(-c2[nH]c(Cc3cccc(C(N)=O)c3)nc2-c2ccc3ncnn3c2)n1` [Example 147, 3-((4-([1,2,4]triazolo[1,5-a]pyridin-6-yl)-5-(6-methylpyridin-2-yl)-1H-imidazol-2-yl)methyl)benzamide], 40 nM.
To `Cc1cccc(-c2[nH]c(CNc3cccc(OC(F)(F)F)c3)nc2-c2ccc3ncnn3c2)n1` [Example 52, N-((4-([1,2,4]triazolo[1,5-a]pyridin-6-yl)-5-(6-methylpyridin-2-yl)-1H-imidazol-2-yl)methyl)-3-(trifluoromethoxy)aniline] belongs 23.4 nM; to `Cc1cccc(-c2[nH]c(Cc3cccc(C#N)c3)nc2-c2ccc3ncnn3c2)n1` [Example 145, 3-((4-([1,2,4]triazolo[1,5-a]pyridin-6-yl)-5-(6-methylpyridin-2-yl)-1H-imidazol-2-yl)methyl)benzonitrile], 12.4 nM.
To `Cc1cccc(-c2[nH]c(CNc3ccccc3C(C)C)nc2-c2ccc3ncnn3c2)n1` [Example 33, N-((4-([1,2,4]triazolo[1,5-a]pyridin-6-yl)-5-(6-methylpyridin-2-yl)-1H-imidazol-2-yl)methyl)-2-isopropylaniline] belongs 14.2 nM; to `Cc1cccc(-c2[nH]c(Cc3ccccc3F)nc2-c2ccc3ncnn3c2)n1` [Example 144, 6-(2-(2-fluorobenzyl)-5-(6-methylpyridin-2-yl)-1H-imidazol-4-yl)-[1,2,4]triazolo[1,5-a]pyridine], 25.1 nM.
In the case of `COc1ccc(NCc2nc(-c3ccc4ncnn4c3)c(-c3cccc(C)n3)[nH]2)cc1OC` [Example 46, N-((4-([1,2,4]triazolo[1,5-a]pyridin-6-yl)-5-(6-methylpyridin-2-yl)-1H-imidazol-2-yl)methyl)-3,4-dimethoxyaniline], the 50% inhibitory concentration (IC50) is 44.2 nM.
Consider `Cc1cccc(-c2[nH]c(CNc3ccccc3Br)nc2-c2ccc3ncnn3c2)n1` [Example 18, N-((4-([1,2,4]triazolo[1,5-a]pyridin-6-yl)-5-(6-methylpyridin-2-yl)-1H-imidazol-2-yl)methyl)-2-bromoaniline], for which the concentration for half-maximal inhibition (IC50) worked out at 6.54 nM.
For `Cc1cccc(-c2[nH]c(CNc3cccc(F)c3)nc2-c2ccc3ncnn3c2)n1` [Example 5, N-((4-([1,2,4]triazolo[1,5-a]pyridin-6-yl)-5-(6-methylpyridin-2-yl)-1H-imidazol-2-yl)methyl)-3-fluoroaniline], the half-maximal inhibitory concentration (IC50) worked out at 9.41 nM.
With `Cc1cc(C)cc(NCc2nc(-c3ccc4ncnn4c3)c(-c3cccc(C)n3)[nH]2)c1` [Example 29, N-((4-([1,2,4]triazolo[1,5-a]pyridin-6-yl)-5-(6-methylpyridin-2-yl)-1H-imidazol-2-yl)methyl)-3,5-dimethylaniline] the figure was 14.3 nM; with `COc1cccc(NCc2nc(-c3ccc4ncnn4c3)c(-c3cccc(C)n3)[nH]2)c1` [Example 43, N-((4-([1,2,4]triazolo[1,5-a]pyridin-6-yl)-5-(6-methylpyridin-2-yl)-1H-imidazol-2-yl)methyl)-3-methoxyaniline], 14.3 nM.
To `COC(=O)c1ccc(NCc2nc(-c3ccc4ncnn4c3)c(-c3cccc(C)n3)[nH]2)cc1` [Example 73, Methyl 4-((4-([1,2,4]triazolo[1,5-a]pyridin-6-yl)-5-(6-methylpyridin-2-yl)-1H-imidazol-2-yl)methylamino)benzoate] belongs 78 nM.
To `CCc1cccc(-c2[nH]c(CNc3ccccc3F)nc2-c2ccc3ncnn3c2)n1` [Example 139, N-((4-([1,2,4]triazolo[1,5-a]pyridin-6-yl)-5-(6-ethylpyridin-2-yl)-1H-imidazol-2-yl)methyl)-2-fluoroaniline] belongs 23.2 nM; to `Cc1cccc(-c2[nH]c(CNc3cccc(Cl)c3)nc2-c2ccc3ncnn3c2)n1` [Example 12, N-((4-([1,2,4]triazolo[1,5-a]pyridin-6-yl)-5-(6-methylpyridin-2-yl)-1H-imidazol-2-yl)methyl)-3-chloroaniline], 6.16 nM; to `Cc1cccc(-c2[nH]c(CNc3ccc(C)c(C)c3)nc2-c2ccc3ncnn3c2)n1` [Example 28, N-((4-([1,2,4]triazolo[1,5-a]pyridin-6-yl)-5-(6-methylpyridin-2-yl)-1H-imidazol-2-yl)methyl)-3,4-dimethylaniline], 17.4 nM.
With `CSc1ccccc1NCc1nc(-c2ccc3ncnn3c2)c(-c2cccc(C)n2)[nH]1` [Example 54, N-((4-([1,2,4]triazolo[1,5-a]pyridin-6-yl)-5-(6-methylpyridin-2-yl)-1H-imidazol-2-yl)methyl)-2-(methylthio)aniline], the half-maximal inhibitory concentration (IC50) came out at 9.93 nM.
Consider `CCc1cccc(NCc2nc(-c3ccc4ncnn4c3)c(-c3cccc(C)n3)[nH]2)c1` [Example 31, N-((4-([1,2,4]triazolo[1,5-a]pyridin-6-yl)-5-(6-methylpyridin-2-yl)-1H-imidazol-2-yl)methyl)-3-ethylaniline], for which the IC50 amounted to 8.01 nM.
